Reference: patent publication US20120053148A1, “INHIBITORS OF HEPATITIS C VIRUS” (GILEAD SCIENCES, INC., priority 2010, published 2012)

The compounds below were run on HCV Replicon IB (assay: HCV replicon assay in Huh-7 cells, genotype 1b (Rluc luciferase readout)). Details: Hepatitis C virus, 72 h; 10 uM; 1b-Rluc replicon, Huh-7 cells, 3 days; read-out: Inhibition @ 10 uM in 1b-Rluc.
Type: cell-based, hepatitis C virus

Going from `Nc1cc(C(=O)NCc2ccccn2)nc2c(OC(F)(F)F)cc(C3CC3)cc12` [Compound 235] to `O=C(NCc1ccccn1)c1cc(Cl)c2cc(OC(F)(F)F)cc(Br)c2n1` [Compound 236], the inhibition at 10 µM falls from 100% to 86.4%.

Compared with `C#Cc1cc(OC(F)(F)F)cc2c(O)cc(C(=O)NCc3ccccn3)nc12` [Compound 237], `C#Cc1cc(OC(F)(F)F)cc2c(Cl)cc(C(=O)NCc3ccccn3)nc12` [Compound 238] is lower in inhibition at 10 µM: 21.7% for the first, 9.91% for the second.

First: O=C(NCc1ccccn1)c1cc(O)c2cc(OC(F)(F)F)cc(-c3cccc4[nH]ncc34)c2n1 [Compound 239]
Second: O=C(NCc1ccccn1)c1cc(Cl)c2cc(OC(F)(F)F)cc(/C=C/c3ccccc3)c2n1 [Compound 240]
The inhibition at 10 µM of the first is higher: 49.3% for the first, 42.2% for the second.

First: O=C(NCc1ccccn1)c1cc(Cl)c2cc(OC(F)(F)F)cc(C(=O)O)c2n1 [Compound 241]
Second: Cc1cc(-c2nnc(NCc3ccccn3)o2)nc2c(C(F)(F)F)cc(C3CC3)cc12 [Compound 254]
The inhibition at 10 µM of the first is lower: 7.94% for the first, 99.7% for the second.

Compared with `Cc1cc(-c2nnc(Nc3ccccc3)o2)nc2c(C(F)(F)F)cc(C3CC3)cc12` [Compound 242], `Cc1cc(-c2nnc(Nc3ccccc3)[nH]2)nc2c(C(F)(F)F)cc(C3CC3)cc12` [Compound 272] is lower in inhibition at 10 µM: 100% for the first, 93.6% for the second.

Compared with `Cc1cc(-c2nnc(N)o2)nc2c(C(F)(F)F)cc(C3CC3)cc12` [Compound 243], `Cc1cc(-c2nnc(NCCO)o2)nc2c(C(F)(F)F)cc(C3CC3)cc12` [Compound 255] is higher in inhibition at 10 µM: 88.4% for the first, 99.4% for the second.

`CCCCNc1nnc(-c2cc(C)c3cc(C4CC4)cc(C(F)(F)F)c3n2)o1` [Compound 244] and `Cc1cc(-c2nnc(NCCCO)o2)nc2c(C(F)(F)F)cc(C3CC3)cc12` [Compound 249] are the same in inhibition at 10 µM: 100% for the first, 100% for the second.

`COCCCNc1nnc(-c2cc(C)c3cc(C4CC4)cc(C(F)(F)F)c3n2)o1` [Compound 245] and `Cc1cc(-c2nnc(NCCCCO)o2)nc2c(C(F)(F)F)cc(C3CC3)cc12` [Compound 258] are the same in inhibition at 10 µM: 100% for the first, 100% for the second.

First: Cc1cc(-c2nnc(NCC3OCCO3)o2)nc2c(C(F)(F)F)cc(C3CC3)cc12 [Compound 246]
Second: Cc1cc(-c2nnc(NCC3COCCO3)o2)nc2c(C(F)(F)F)cc(C3CC3)cc12 (stereo not drawn) [Compound 250]
The inhibition at 10 µM of the first is higher: 100% for the first, 99.9% for the second.

Compared with `Cc1cc(-c2nnc(NCC3(C)OCCO3)o2)nc2c(C(F)(F)F)cc(C3CC3)cc12` [Compound 247], `Cc1cc(-c2nnc(NCC3(C#N)CC3)o2)nc2c(C(F)(F)F)cc(C3CC3)cc12` [Compound 268] is lower in inhibition at 10 µM: 100% for the first, 99.4% for the second.

First: Cc1cc(-c2nnc(NCC(=O)N(C)C)o2)nc2c(C(F)(F)F)cc(C3CC3)cc12 [Compound 248]
Second: Cc1cc(-c2nnc(NCC(=O)N(C)C)o2)nc2c(C(C)(C)C)cc(C3CC3)cc12 [Compound 281]
The inhibition at 10 µM of the first is higher: 99.9% for the first, 99.8% for the second.

Compared with `Cc1cc(-c2nnc(NCCCN3CCOCC3)o2)nc2c(C(F)(F)F)cc(C3CC3)cc12` [Compound 251], `Cc1cc(-c2nnc(NCCCN3CCCCC3)o2)nc2c(C(F)(F)F)cc(C3CC3)cc12` [Compound 256] is higher in inhibition at 10 µM: 80.9% for the first, 99.4% for the second.

Going from `Cc1cc(-c2nnc(NCC3COCCN3)o2)nc2c(C(F)(F)F)cc(C3CC3)cc12` (stereo not drawn) [Compound 252] to `Cc1cc(-c2nnc(NCC3COCCN3)s2)nc2c(C(F)(F)F)cc(C3CC3)cc12` (stereo not drawn) [Compound 299], the inhibition at 10 µM rises from 92.7% to 98%.

Compared with `CCOCCOCCOCCCNc1nnc(-c2cc(C)c3cc(C4CC4)cc(C(F)(F)F)c3n2)o1` [Compound 253], `CCOCCOCCOCCCNc1nnc(-c2cc(C)c3cc(C4CC4)cc(C(F)(F)F)c3n2)s1` [Compound 293] is higher in inhibition at 10 µM: 80% for the first, 96% for the second.

First: Cc1cc(-c2nnc(NCc3ncc[nH]3)o2)nc2c(C(F)(F)F)cc(C3CC3)cc12 [Compound 257]
Second: Cc1cc(-c2nnc(NCCS(C)(=O)=O)o2)nc2c(C(F)(F)F)cc(C3CC3)cc12 [Compound 265]
The inhibition at 10 µM of the first is higher: 99.7% for the first, 98% for the second.

First: Cc1cc(-c2nnc(NCCCCCO)o2)nc2c(C(F)(F)F)cc(C3CC3)cc12 [Compound 259]
Second: Cc1cc(-c2nnc(NCCCCO)o2)nc2c(C(C)(C)C)cc(C3CC3)cc12 [Compound 284]
The inhibition at 10 µM of the first is lower: 98.4% for the first, 99.9% for the second.

Going from `Cc1cc(-c2nnc(NCC(C)(C)CO)o2)nc2c(C(F)(F)F)cc(C3CC3)cc12` [Compound 260] to `Cc1cc(-c2nnc(NC(C)(C)CO)o2)nc2c(C(F)(F)F)cc(C3CC3)cc12` [Compound 261], the inhibition at 10 µM rises from 96.7% to 99.2%.

Going from `CCCC(=O)Nc1nnc(-c2cc(C)c3cc(C4CC4)cc(C(F)(F)F)c3n2)o1` [Compound 262] to `Cc1cc(-c2nnc(NCCCS(C)(=O)=O)o2)nc2c(C(F)(F)F)cc(C3CC3)cc12` [Compound 269], the inhibition at 10 µM falls from 99.7% to 87.4%.

Going from `Cc1cc(-c2nnc(NCC3CCS(=O)(=O)C3)o2)nc2c(C(F)(F)F)cc(C3CC3)cc12` (stereo not drawn) [Compound 266] to `Cc1cc(-c2nnc(NCCCS(N)(=O)=O)o2)nc2c(C(F)(F)F)cc(C3CC3)cc12` [Compound 267], the inhibition at 10 µM rises from 90.6% to 97.7%.

Compared with `Cc1cc(-c2nnc(NCCS(=O)(=O)N(C)C)o2)nc2c(C(F)(F)F)cc(C3CC3)cc12` [Compound 270], `Cc1cc(-c2nnc(NCCS(C)(=O)=O)o2)nc2c(C(C)(C)C)cc(C3CC3)cc12` [Compound 285] is higher in inhibition at 10 µM: 84.7% for the first, 99.6% for the second.

First: CCCCNc1nnc(-c2cc(C)c3cc(OC)cc(C(F)(F)F)c3n2)o1 [Compound 273]
Second: COc1cc(C(F)(F)F)c2nc(-c3nnc(NCCCO)o3)cc(C)c2c1 [Compound 277]
The inhibition at 10 µM of the first is higher: 100% for the first, 98.2% for the second.

Compared with `COCCCNc1nnc(-c2cc(C)c3cc(OC)cc(C(F)(F)F)c3n2)o1` [Compound 274], `COCCNc1nnc(-c2cc(C)c3cc(OC)cc(C(F)(F)F)c3n2)o1` [Compound 275] is higher in inhibition at 10 µM: 99.4% for the first, 99.7% for the second.

First: CCOCCNc1nnc(-c2cc(C)c3cc(OC)cc(C(F)(F)F)c3n2)o1 [Compound 276]
Second: COc1cc(C(F)(F)F)c2nc(-c3nnc(NCC(=O)N(C)C)o3)cc(C)c2c1 [Compound 279]
The inhibition at 10 µM of the first is lower: 97.6% for the first, 98.4% for the second.

`COc1cc(C(F)(F)F)c2nc(-c3nnc(NCC4OCCO4)o3)cc(C)c2c1` [Compound 278] and `Cc1cc(-c2nnc(NCC3OCCO3)o2)nc2c(C(F)(F)F)cc(OCC(F)(F)F)cc12` [Compound 280] are the same in inhibition at 10 µM: 99.9% for the first, 99.9% for the second.

Compared with `Cc1cc(-c2nnc(NCCCO)o2)nc2c(C(C)(C)C)cc(C3CC3)cc12` [Compound 282], `Cc1cc(-c2nnc(NCC3OCCO3)o2)nc2c(C(C)(C)C)cc(C3CC3)cc12` [Compound 283] is higher in inhibition at 10 µM: 99.9% for the first, 100% for the second.

First: Cc1cc(-c2nnc(NCCCO)s2)nc2c(C(F)(F)F)cc(C3CC3)cc12 [Compound 286]
Second: Cc1cc(-c2nnc(NCCCCCO)s2)nc2c(C(F)(F)F)cc(C3CC3)cc12 [Compound 291]
The inhibition at 10 µM of the first is higher: 99.9% for the first, 99.1% for the second.

`Cc1cc(-c2nnc(NCCCOP(=O)(O)O)s2)nc2c(C(F)(F)F)cc(C3CC3)cc12` [Compound 287] and `COCCCNc1nnc(-c2cc(C)c3cc(C4CC4)cc(C(F)(F)F)c3n2)s1` [Compound 290] are the same in inhibition at 10 µM: 99.9% for the first, 99.9% for the second.

Going from `CCCCNc1nnc(-c2cc(C)c3cc(C4CC4)cc(C(F)(F)F)c3n2)s1` [Compound 288] to `CNCCCNc1nnc(-c2cc(C)c3cc(C4CC4)cc(C(F)(F)F)c3n2)s1` [Compound 300], the inhibition at 10 µM falls from 100% to 97.9%.

Compared with `Cc1cc(-c2nnc(NS(C)(=O)=O)s2)nc2c(C(F)(F)F)cc(C3CC3)cc12` [Compound 289], `Cc1cc(-c2nnc(NCCCNS(C)(=O)=O)s2)nc2c(C(F)(F)F)cc(C3CC3)cc12` [Compound 296] is lower in inhibition at 10 µM: 70.7% for the first, 51.3% for the second.

Compared with `Cc1cc(-c2nnc(NCCOCCO)s2)nc2c(C(F)(F)F)cc(C3CC3)cc12` [Compound 292], `Cc1cc(-c2nnc(NCCC(C)O)s2)nc2c(C(F)(F)F)cc(C3CC3)cc12` (stereo not drawn) [Compound 302] is higher in inhibition at 10 µM: 97.9% for the first, 99.9% for the second.

Compared with `Cc1cc(-c2nnc(NCCC3OCCO3)s2)nc2c(C(F)(F)F)cc(C3CC3)cc12` [Compound 294], `Cc1cc(-c2nnc(NCC3OCCO3)s2)nc2c(C(F)(F)F)cc(C3CC3)cc12` [Compound 297] is higher in inhibition at 10 µM: 99.9% for the first, 100% for the second.

Compared with `Cc1cc(-c2nnc(NCCC(C)(C)O)s2)nc2c(C(F)(F)F)cc(C3CC3)cc12` [Compound 295], `Cc1cc(-c2nnc(NCC(C)(C)CO)s2)nc2c(C(F)(F)F)cc(C3CC3)cc12` [Compound 304] is lower in inhibition at 10 µM: 98.1% for the first, 96.2% for the second.

Going from `Cc1cc(-c2nnc(NCCCN3CCOCC3)s2)nc2c(C(F)(F)F)cc(C3CC3)cc12` [Compound 298] to `Cc1cc(-c2nnc(NCC(O)CO)s2)nc2c(C(F)(F)F)cc(C3CC3)cc12` (stereo not drawn) [Compound 301], the inhibition at 10 µM rises from 88% to 99.6%.

Going from `Cc1cc(-c2nnc(NC[C@@H](O)CO)s2)nc2c(C(F)(F)F)cc(C3CC3)cc12` [Compound 303] to `Cc1cc(-c2nnc(N)s2)nc2c(C(F)(F)F)cc(C3CC3)cc12` [Compound 305], the inhibition at 10 µM falls from 98.2% to 96.6%.

Same assay, conditions: Hepatitis C virus, Huh-7, 72 h, HCV1B replicon, Huh-7 cells, 3 days; read-out: EC50_HCV1B_

First: Cc1cc(-c2nnc(NCC3(CO)CC3)s2)nc2c(C(F)(F)F)cc(C3CC3)cc12 [Compound 306]
Second: Cc1cc(-c2nnc(NCCO)s2)nc2c(C(F)(F)F)cc(C3CC3)cc12 [Compound 308]
The EC50 of the first is 21-fold higher: 1410 nM for the first, 66 nM for the second. The second is the more potent here.

Compared with `Cc1cc(-c2nnc(NCCCCO)s2)nc2c(C(F)(F)F)cc(C3CC3)cc12` [Compound 307], `Cc1cc(-c2nnc(NCCCS(N)(=O)=O)s2)nc2c(C(F)(F)F)cc(C3CC3)cc12` [Compound 309] is 500-fold higher in EC50: 14.1 nM for the first, 7090 nM for the second. The first is the more potent here.

In the case of `Cc1cc(-c2nnc(NCC3CC(F)(F)CN3)s2)nc2c(C(F)(F)F)cc(C3CC3)cc12` (stereo not drawn) [Compound 310], the EC50 is reported as 1570 nM.

Same assay, conditions: Hepatitis C virus, Huh-7, 72 h; read-out: Inhibition @ 10 uM in 1b-Rluc

Compared with `CNC(=O)CNc1nnc(-c2cc(C)c3cc(C4CC4)cc(C(F)(F)F)c3n2)o1` [Compound 264], `Cc1cc(-c2nnc(Nc3cccc(F)c3)o2)nc2c(C(F)(F)F)cc(C3CC3)cc12` [Compound 271] is higher in inhibition at 10 µM: 99.8% for the first, 100% for the second.
